Measured values reported in US12201668B2, “Adiponectin peptidomimetics formulations” (ALLYSTA PHARMACEUTICALS, INC., priority 2018, dated 2025).
Non-standard residues stand in square brackets, D forms with d. Residues, ends and D or L forms follow the SMILES beside them. Nva = CCC[C@H](N)C(=O)O

Tests used:
[1] = tested on: rabbit atropine-induced dry eye model; assay: Tear Break-Up Time (TBUT) in atropine-induced dry eye; type: in vivo, NZW rabbits
Description: (§1) The purpose of this study was to evaluate the efficacy of a topical ALY688 ophthalmic formulation according Formula 22 in Example 2 in a rabbit atropine-induced dry eye model.
(§2) Clinical evaluations of corneal fluorescein staining, tear break-up time and tear volume were determined at five timepoints during the 14 day dosing period. Pre-dose ophthalmic anterior segment slit-lamp exams with corneal fluorescein staining, Tear Volume (TV) and Tear Break-Up Time (TBUT) assessments were performed. Animals were assigned to treatment groups such that the average baseline TV and TBUT values were approximately equal across groups.
(§3) Study Groups were assigned as follows: • Group 1: Atropine+ALY688 0.4% ophthalmic TID, (n=6) • Group 2: Atropine+Vehicle ophthalmic TID, (n=6) • Group 3: Atropine only (n=4)
(§4) Test article dosing began on Day −1.
(§5) Atropine eye drops (TID) began on Day 0.
(§6) Dry eye evaluations were performed on Days 1, 3, 7, 10, and 13.
Tear Breakup Time (TBUT): TBUT was determined after instillation of 6 μL of 2% sodium fluorescein in sterile saline onto the lower eyelid. After manually blinking the eye, the time for black spots or streaks to appear on the cornea under cobalt filter illumination was recorded. The procedure was conducted three times consecutively, and the average of three readings was used.

[2] = Solubility of the peptide in acetate buffer formulation; type: physicochemical
Description: Vehicle was prepared by dissolving propylene glycol (1.77 g) and Tyloxapol (0.1 g) in 97 mL of 35 mM of Acetic Acid/Sodium Acetate buffer, pH 4.3-4.5 by mixing until uniform. The peptide D-Asn-Ile-Pro-Nva-Leu-Tyr-D-Ser-Phe-Ala-D-Ser-NH2 (API, also referred to as ALY688 or ALY-688 herein) (1.0 g) was added to the vehicle and mixed until dissolved. The pH was adjusted with small amounts of Acetic Acid or Sodium Hydroxide. The formulation was sterile-filtered.
A concentration of 12 mg/g Acetate buffer gave a clear solution at a pH 4.5.

[3] = tested on: rabbit atropine-induced dry eye model; assay: Slit-lamp examination of the anterior segment (McDonald-Shattuck) in atropine-induced dry eye study; type: in vivo, NZW rabbits; conditions: ALY688 0.4% ophthalmic TID (Formula 22); baseline and Day 13
Description: as §1, §2, §3
Examinations: Slit-lamp examinations of the anterior segment were performed at baseline and on Day 13 according to the McDonald-Shattuck Scoring System including conjunctival congestion, swelling, and discharge, corneal opacity, pannus, anterior chamber cells and flare, iris, light reflex, and lens.

[4] = tested on: rabbit atropine-induced dry eye model; assay: Atropine-induced dry eye in rabbits, overall conclusion; type: in vivo, NZW rabbits
Description: as §1, §2, §3, §4, §5, §6
The evaluator was masked as to treatment group for all assessments.

[5] = tested on: rabbit atropine-induced dry eye model; assay: Tear Volume (TV, Schirmer Tear Test strips) in atropine-induced dry eye; type: in vivo, NZW rabbits
Description: as §1, §2, §3, §4, §5, §6
Tear Volume (TV): Tear volume was measured using Schirmer Tear Test strips (Intervet, Inc., Summit, NJ), by placing the strip into the lower fornix for 60 seconds and recording the mm distance of the wetted area.

[6] = tested on: rabbit atropine-induced dry eye model; assay: Corneal epithelial fluorescein staining in atropine-induced dry eye; type: in vivo, NZW rabbits
Description: as §1, §2, §3, §4, §5, §6
Corneal epithelial staining: Corneal staining was assessed immediately after the TBUT measurement, after rinsing excess fluorescein. Fluorescein uptake was graded according to the NEI/Industry Grading System, in 5 separate areas of the cornea using a 0-3 grading scale maximum score: 15). Total staining score was calculated for each eye.

[7] = integrated AUC response vs baseline, p<0.005, FIG. 4

Question: With CCC[C@H](NC(=O)[C@@H]1CCCN1C(=O)[C@@H](NC(=O)[C@H](N)CC(N)=O)[C@@H](C)CC)C(=O)N[C@@H](CC(C)C)C(=O)N[C@@H](Cc1ccc(O)cc1)C(=O)N[C@H](CO)C(=O)N[C@@H](Cc1ccccc1)C(=O)N[C@@H](C)C(=O)N[C@H](CO)C(N)=O [ALY688, D-Asn-Ile-Pro-Nva-Leu-Tyr-D-Ser-Phe-Ala-D-Ser-NH2] (H-[dN]IP[Nva]LY[dS]FA[dS]-NH2; N-terminus assumed) as the compound, how does the TBUT decrease ([1]; ALY688 0.4% TID, Day 1 of atropine treatment (vehicle group 50%)) read?
Answer: The TBUT decrease was 32%.

Question: And the “TBUT level by Day 7” value ([1]; ALY688 0.4% TID, Day 7)?
Answer: The value was “returned to baseline TBUT levels”.

Question: And the “TBUT compared to vehicle” value ([1]; ALY688 0.4% TID, Days 7, 10 and 13 (p<0,01))?
Answer: Its value is “statistically significant higher”.

Question: What about the “TBUT level through the remainder of the study” value ([1]; ALY688 0.4% TID, after Day 7 to Day 13) of the same compound?
Answer: Its value is “maintained normal TBUT levels”.

Question: And the “TBUT compared to atropine-only group” value ([1]; ALY688 0.4% TID, all post-baseline days, 2-sample two-tailed t-test)?
Answer: The value was “statistically significantly higher”.

Question: What about the “TBUT, integrated analysis at all post-baseline timepoints vs vehicle” value [1, 7] of the same compound?
Answer: The value was “highly statistically significant improvement”.

Question: And the “concentration that gave a clear solution” value ([2]; Acetate buffer, pH 4.5)?
Answer: Its value is 12 mg/g.

Question: And the “solubility of the peptide” value ([2]; formulation of Example 1)?
Answer: The value was “significantly increased”.

Question: What about the “anterior segment slit-lamp exam findings related to test article” value [3] of the same compound?
Answer: Its value is “no abnormal findings”.

Question: And the “reduction of dry eye signs” value ([4]; ALY688 ophthalmic solution 0.4% TID, 14 day dosing)?
Answer: The value was “highly effective at reducing dry eye signs”.

Question: And the onset of effects ([4]; after initiation of ALY688 treatment)?
Answer: The onset of effects was “as early as two days after initiation”.

Question: And the “Tear Volume vs vehicle group on Day 13” value ([5]; ALY688 0.4% TID, Day 13 (p=0.01), borderline (p=0.08) on Days 1 and 7)?
Answer: Its value is “statistically significantly higher”.

Question: What about the “Tear Volume vs vehicle control group” value ([5]; ALY688 0.4% TID, all timepoints) of the same compound?
Answer: Its value is “consistently higher”.

Question: And the “Tear Volume, integrated analysis at all post-baseline timepoints vs vehicle” value [5, 7]?
Answer: The value was “highly statistically significant improvement”.

Question: And the “corneal fluorescein staining vs vehicle control group” value ([6]; ALY688 0.4% TID, all evaluation timepoints, statistically significant on Days 1, 3, 10 (p<0.05))?
Answer: The value was “lower”.

Question: And the “corneal staining, integrated analysis at all post-baseline timepoints vs vehicle” value [6, 7]?
Answer: Its value is “highly statistically significant improvement”.
